From PubChem BioAssay (NCI)
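Assay format: 96-well plates, 48-hour exposure. At the TGI there is no net growth.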

Tests used:
Assay in all cases: growth of human tumour cells (NCI), 48 h
[1] = test system: OVCAR-4 ovarian
[2] = test system: HOP-18 NSCLC
[3] = test system: SF-295 CNS
[4] = test system: TK-10 renal
[5] = test system: MOLT-4 leukemia
[6] = test system: RXF 393 renal
[7] = test system: KM20L2 colon
[8] = test system: DMS 273 small cell lung
[9] = test system: IGROV1 ovarian
[10] = test system: M19-MEL melanoma
[11] = test system: NCI-H23 lung
[12] = test system: LXFL 529 NSCLC
[13] = test system: UACC-257 melanoma
[14] = test system: RPMI-8226 leukemia
[15] = test system: COLO 205 colon
[16] = test system: SR leukemia
[17] = test system: EKVX NSCLC
[18] = test system: SF-539 CNS
[19] = test system: HCT-15 colon
[20] = test system: HOP-92 NSCLC
[21] = test system: SK-MEL-2 melanoma
[22] = test system: DMS 114 small cell lung
[23] = test system: SN12C renal
[24] = test system: UO-31 renal
[25] = test system: DLD-1 colon
[26] = test system: HCT-116 colon
[27] = test system: SNB-78 CNS
[28] = test system: SF-268 CNS
[29] = test system: XF 498 CNS
[30] = test system: K-562 leukemia
[31] = test system: HT29 colon
[32] = test system: SK-OV-3 ovarian
[33] = test system: OVCAR-3 ovarian
[34] = test system: LOX IMVI melanoma
[35] = test system: ACHN renal
[36] = test system: KM12 colon
[37] = test system: U251 CNS
[38] = test system: UACC-62 melanoma
[39] = test system: SNB-75 CNS
[40] = test system: M14 melanoma
[41] = test system: NCI-H460 lung
[42] = test system: MALME-3M melanoma
[43] = test system: HL-60(TB) leukemia
[44] = test system: A549 NSCLC
[45] = test system: SK-MEL-28 melanoma
[46] = test system: CCRF-CEM leukemia
[47] = test system: NCI-H226 lung
[48] = test system: HCC-2998 colon
[49] = test system: SW-620 colon
[50] = test system: HOP-62 NSCLC
[51] = test system: SNB-19 CNS
[52] = test system: A498 renal
[53] = test system: OVCAR-8 ovarian
[54] = test system: NCI-H522 lung
[55] = test system: 786-0 renal

Measured: TGI

C=C1CC[C@@H]2C(C)(C)C(O)CCC2(C)C1COc1ccc2ccc(=O)oc2c1 (stereo not given in full)
29.7 µM: [1] | [3]
28.3 µM: [19]
36.3 µM: [43]
37.3 µM: [31]
35.5 µM: [6]
28.1 µM: [15]
34.3 µM: [37]
28.8 µM: [26]
32.1 µM: [42]
42.4 µM: [49]
56.9 µM: [16]
56.8 µM: [52]
23.5 µM: [41]
34.8 µM: [48]
29.6 µM: [29]
39.8 µM: [5]
35 µM: [2]
32.6 µM: [13] | [33] | [44]
31.3 µM: [18]
37.4 µM: [17] | [51]
33.8 µM: [14]
39.2 µM: [27]
32.2 µM: [39] | [45]
23.7 µM: [12]
36.9 µM: [4]
30.5 µM: [35]
29.4 µM: [24] | [38]
34.4 µM: [25]
32 µM: [21] | [34]
33.3 µM: [47]
29.8 µM: [36] | [54]
33.5 µM: [9] | [53]
42.2 µM: [55]
33.2 µM: [40]
32.5 µM: [10]
33.4 µM: [50]
35.4 µM: [20]
49 µM: [46]
28.2 µM: [22]
40.5 µM: [7]
34.6 µM: [11]
44.1 µM: [30]
36.7 µM: [28]
30 µM: [23]
27.3 µM: [8]
55.2 µM: [32]

COc1nc(NC2OCC(O)C(O)C2O)c(NC2OCC(O)C(O)C2O)c(=O)n1C (stereo not given)
> 100 µM: [1] | [2] | [3] | [4] | [5] | [6] | [7] | [8] | [9] | [10] | [11] | [12] | [13] | [14] | [15] | [16] | [17] | [18] | [19] | [20] | [21] | [22] | [23] | [24] | [25] | [26] | [27] | [28] | [29] | [30] | [31] | [32] | [33] | [34] | [35] | [36] | [37] | [38] | [39] | [40] | [41] | [42] | [43] | [44] | [45] | [46] | [47] | [48] | [49] | [50] | [51] | [52] | [53] | [54] | [55]

CCN(CC)C(=O)c1c(Cl)cc(N(CC)CC)oc1=O
> 100 µM: [1] | [2] | [3] | [4] | [5] | [6] | [7] | [8] | [9] | [10] | [11] | [12] | [13] | [14] | [15] | [16] | [17] | [18] | [19] | [20] | [21] | [22] | [23] | [24] | [25] | [26] | [27] | [28] | [29] | [30] | [31] | [32] | [33] | [34] | [35] | [36] | [37] | [38] | [39] | [40] | [41] | [42] | [43] | [44] | [45] | [46] | [47] | [48] | [49] | [50] | [51] | [52] | [53] | [54] | [55]
